Test results taken from paper PMC12371492, “Poly-Arginine Tails and Helical Segments of Natural Antimicrobial Peptides Display Concerted Action at Membranes for Enhanced Antimicrobial Effects” (ACS Bio & Med Chem Au, 2025).
Like-named read-outs stand apart in the source and are kept apart here. Ends that are not written are not given here.

Experiments:
[1] = system: Vibrio cholerae O1 El Tor strain C6706; type: cell-based; details: CM9-Hepes pH 7.4, 5 × 10^5 cfu/mL, 20 h at 37 °C shaking, OD 600 nm, triplicate
[2] = system: bacteria; details: bacteria and source not stated (discussion)
[3] = Calcein dye leakage assay on LUVs
Procedure: Calcein leakage assays were done on large unilamellar vesicles (LUVs) following a procedure previously described. , Briefly, a 3:1 POPC/POPG lipid film (containing 4 μmol total of lipids) was prepared in a round-bottom flask using the lipids dissolved in chloroform. The solvent was removed under N2 gas before drying overnight under vacuum. The next day, the lipid cake was hydrated with 300 μL of 80 mmol/L calcein dye (pH 7.4) to generate a suspension that was subjected to 3 freeze–thaw cycles before extrusion through a 0.1 μm polycarbonate filter placed in a mini extruder (Avanti Polar Lipids). Untrapped calcein was separated from the LUVs by chromatography using a Sephadex G-50 column run with HEPES buffer (50 mmol/L, 100 mmol/L NaCl, 0.3 mmol/L EDTA, pH 7.4). A total phosphorus assay was performed to determine the exact lipid concentration of the LUVs. After diluting the vesicles to a final concentration of ∼35 μmol/L, the LUVs were plated in 180 μL wells and exposed to 20 μL of TP4 solutions serially diluted from stock, as needed to generate peptide-to-lipid ratios (P/L) ranging from P/L = 1:2 and 1:1024. Triplicates of each well were run, and at least three independent assays were performed as well. The 96-well plate was incubated at 20 °C with shaking for 40 min. After equilibration at room temperature, the fluorescence was measured using a BioTek SynergyH1 plate reader (BioTek, Winooski, VT) using excitation and emission wavelengths of 490 and 520 nm, respectively. The fractional leakage produced by TP4 was calculated using the equation: %leakage=Ix−I0%/I100%−I0% where I x is the fluorescence intensity in a peptide-containing well, I 100% is the intensity of the positive control (100% leakage obtained with 20 μL of 1% Triton-X detergent), and I 0% is the intensity of the negative control (0% leakage obtained with 20 μL nanopure water). P1 was run in parallel for comparative purposes. The dose–response curves were fitted in GraphPad Prism using a modified version of the Hill equation to extract the EC50 as the P/L where half of the dye has been released. […]

[4] = system: Escherichia coli (E. coli) MG1655; type: cell-based
Procedure: (§1) Minimum inhibitory concentrations were determined by broth microdilution technique. Two bacterial species were used: Gram-positive bacteria Staphylococcus epidermidis (S. epidermidis), derived from ATCC 14990 and Gram-negative bacteria Escherichia coli (E. coli) MG1655, respectively. S. epidermidis was grown in TSB, and E. coli was grown in MHB. Both were stored at 4 °C on their respective growth medium agar plates. Before the assay, bacteria were grown overnight in 5 mL of growth medium at 37 °C. The grown bacteria were further subcultured in 3 mL of growth medium by diluting to 1% until the O.D. reached 0.4–0.6 within 2.5–3 h. After the bacteria reached the mid log phase, further dilution was made to attain an O.D. of 0.001 to get a final of ∼10^5 CFU/mL in each well of a 96-well plate. An Opentron OT_2 robot pipetting system was used to automatically prepare serial dilutions of peptides and add the bacteria to attain a total volume of 100 μL in each well. The wells containing only medium served as a negative blank. The plate was then incubated for 24 h at 37 °C, and the O.D. of the plate was recorded at 600 nm using a BioTek (Agilent, Santa Clara, CA) microplate reader (Figure S1). The lowest concentration at which no bacterial growth was observed was considered the MIC of the peptide.

[5] = system: Staphylococcus epidermidis (S. epidermidis), derived from ATCC 14990; type: cell-based
Procedure: as §1

[6] = broth microdilution, MHB, ~10^5 CFU/mL, 24 h at 37 °C, O.D. 600 nm, lowest concentration with no growth
[7] = broth microdilution, TSB, ~10^5 CFU/mL, 24 h at 37 °C, O.D. 600 nm, lowest concentration with no growth

| Substance | MIC Vibrio cholerae [1] [µM] | MIC values [2] [µM] | MIC E. coli [4, 6] [µM] | MIC S. epidermidis [5, 7] [µM] | further results |
| --- | --- | --- | --- | --- | --- |
| FFHHIFRGIVHVGKTIHRLVTG-NH2 [P1, reference compound] | 16 | < 1 |  |  |  |
| FFHHIFRGIVHVGKTIHRLVTGRRRRR-NH2 [P1-R5, P1 with the R5 motif added at the C-terminal end] |  |  |  |  | EC50, L/P yielding 50% calcein leakage ([3]; 3:1 POPC/POPG LUVs ~35 μmol/L lipid, HEPES pH 7.4, 40 min at 20 °C, fluorescence 490/520 nm, ± standard error, three assays in triplicate): 97.2 ± 3.4 L/P; calcein leakage ([3]; POPC/POPG liposomes, P/L of 1:10): 100%; factor more active than P1 (EC50 ratio) ([3]; calcein leakage, 3:1 POPC/POPG LUVs): 3.4 fold |
| FIHHIIGGLFSAGKAIHRLI-NH2 [TP4-noR5] |  |  | 16 | 2 |  |
| FIHHIIGGLFSAGKAIHRLIRRRRR-NH2 [TP4] | 1 | < 1 |  |  | MIC E. coli ([4]; MG1655, 24 h): 4 µM; MIC S. epidermidis ([5]; ATCC 14990, 24 h): 1 µM |
| QLAQALAAALAALAQGW-NH2 [NP] |  |  | >64 | >64 |  |
| QLAQALAAALAALAQGWRRRRR-NH2 [NP-R5] |  |  | 7.5 | 2 |  |
